Reference: US20220339135A1, “COMPOSITIONS AND METHODS FOR MODULATING AN INFLAMMATORY RESPONSE” (Enzychem Lifesciences Corporation, priority 2019, published 2022)
Values belong to the molecule of their own block, whether it stands above or below them.

Experiments:
[1] = test system: ERK, p38 MAPK, JNK in THP-1 cells; experiment: Gemcitabine-induced phosphorylation of ERK, p38 MAPK, JNK, western blot; assay type: cell-based, human; details: inhibitor of NADPH oxidase
Protocol: Total cells were lysed on ice for 30 minutes in RIPA buffer composed of 50 mM Tris-HCl (pH 7.4), 150 mM NaCl, 2 mM EDTA, 1% NP-40, 0.5% sodium deoxycholate, 0.1% SDS, 1 mM phenylmethylsulfonyl fluoride (PMSF), 10 mM sodium fluoride, 2 mM sodium pyrophosphate, 10 mM β-glycerophosphate, 10 mM sodium orthovanadate. Membrane-and-cytoplasmic protein fractions of cultured cells were obtained with Mem-PER Plus Membrane Protein Extraction Kit (Thermo Scientific, MA, USA) according to the manufacturer's instructions. The lysates were centrifuged at 13,000 rpm for 20 minutes at 4° C. and protein concentrations were determined using the Bradford assay (Bio-Rad Laboratories). Denatured samples were mixed with a 5×SDS-PAGE loading buffer and heated to 100° C. for 15 min. The samples were separated on the 10% of SDS-PAGE gel and transferred to polyvinylidene difluoride (PVDF) membranes (Merck Millipore Corporation, MA, USA). Membranes were blocked with 5% non-fat milk in PBS (10 mM Tris-HCl, pH7.5, 150 mM NaCl) for 1 h and probed with primary antibodies against ERK1/2, phospho-ERK1/2, P38, phospho-P38, SAPK/JNK, phospho-SAPK/JNK, Na, K-ATPase, α-Tubulin, and β-actin from Cell Signaling Technology (MA, USA), Rac1 from Merck Millipore Corporation), p47phox and phospho-p47phox from Invitrogen, adenosine receptor A1 from Abcam, β arrestin-1 from Santa Cruz Technology for overnight at 4° C. The blots were washed and incubated with appropriate secondary antibodies and visualized using Pierce ECL Western Blotting Substrate (Thermo Scientific).

[2] = test system: LPS-induced acute lung injury; experiment: LPS-induced acute lung injury (ALI) in mice; assay type: in vivo; details: LPS-treated mice, co-treatment
[3] = test system: intracellular calcium in dHL-60 cells; experiment: Fluo-4 calcium assay; assay type: cell-based, human
Protocol: Human leukemia line (HL-60) cells were differentiated (dHL-60) to neutrophil-like cells in the culture medium with the addition of 1.3% DMSO (Sigma) for 5 days in a humidified atmosphere at 37° C. without changing the medium. dHL-60 cells (2×10^5 cells/mL) were loaded with 5 μM fluo-4 AM for 45 minutes and washed three times with warmed modified (37° C.) HBSS buffer (137.93 mM NaCl, 5.33 mM KCl, 2 mM CaCl2), 1 mM MgSO4, 2.38 mM HEPES, 5.5 mM glucose, pH to 7.4). The cells were seeded on black-walled 96-well plates and then treated with vehicle (0.1% DMSO), ionomycin (5 μM; positive control) or PLAG (100 μg/mL) just before measurement. Baseline fluorescence was measured before treatment, and fluorescence was read every 20 s for 700 s using an excitation wavelength of 494 nm, an emission wavelength of 516 nm in a FlexStation 3 microplate reader (Molecular Devices). Fluorescence values were reported as F/Fo according to the calculation: [ΔF=(494 nm)f/(516 nm)f−(494 nm)0/(516 nm)0]. For studies in 0 mM external calcium, the cells were loaded as mentioned earlier. After being loaded, the cells were washed four times with calcium-free HBSS. The remainder of the study was carried out in calcium-free HBSS.
(§1) HL-60 cells were differentiated (dHL-60) to neutrophil-like cells in the culture medium with the addition of 1.3% DMSO (Sigma) for 5 days in a humidified atmosphere at 37° C. without changing the medium. dHL-60 cells (2×10^5 cells/mL) were loaded with 5 μM fluo-4 AM for 45 minutes and washed three times with warmed modified (37° C.) HBSS buffer (137.93 mM NaCl, 5.33 mM KCl, 2 mM CaCl2, 1 mM MgSO4, 2.38 mM HEPES, 5.5 mM glucose, pH to 7.4). […] Baseline fluorescence was measured before treatment, and fluorescence was read every 20 seconds for 700 seconds using an excitation wavelength of 494 nm, an emission wavelength of 516 nm in a FlexStation 3 microplate reader (Molecular Devices). Fluorescence values were reported as F/Fo according to the calculation: [ΔF=(494 nm)f/(516 nm)f−(494 nm)0/(516 nm)0]. […]
as §1, with “s” for “seconds”, “Devices).” for “Devices). Fluorescence values were reported as F/Fo according to the calculation: [ΔF=(494 nm)f/(516 nm)f−(494 nm)0/(516 nm)0].”

[4] = test system: gemcitabine-induced neutrophil extravasation; experiment: Gemcitabine-induced neutropenia mice model; assay type: in vivo
Protocol: Male BALB/c mice were randomly divided into 3 groups; normal control group (n=5), gemcitabine only group (n=5) and gemcitabine with PLAG group (n=5). The mice were intraperitoneally (i.p.) injected with 50 mg/kg gemcitabine to induce neutropenia. PLAG was diluted with phosphate-buffered saline (PBS) and then orally administrated at a dose of 50 or 250 mg/kg/day. The normal control group was administered PBS only during the experiment. The whole blood was collected from the orbital sinuses using capillary tubes (Kimble Chase Life Science and Research Products LLC, FL, USA) and collection tubes containing K3E-K3EDTA (Greiner Bio-One International, Germany). To obtain peritoneal cells, 5 ml of cold PBS was injected to the left side of the peritoneal wall using a 5 mL syringe, and the fluid was aspirated from the peritoneum. The collected cells were counted by complete blood count (CBC) analysis using Mindray BC-5300 auto-hematology analyzer (Shenzhen Mindray Biomedical Electronics, China). To establish a 4T1 tumor-bearing mice model, the murine 4T1 mammary carcinoma cells (1×10^5) were subcutaneously injected on the right side of the abdomen. On the 10th day after tumor injection, the mice were intraperitoneally (i.p.) injected with 50 mg/kg gemcitabine, and the next day the whole blood was collected from the orbital sinuses as mentioned above before sacrificing the animals to obtain different organs of the body for RT-PCR.
PLAG inhibits gemcitabine-induced neutrophil extravasation into the peritoneum by down-regulating the expression of adhesion molecules in normal BALB/c mice. Male BALB/c mice of 8-10 weeks of age were orally administrated with 50 or 250 mg/kg of PLAG and then were intraperitoneally injected with 50 mg/kg gemcitabine. After 24 h, blood samples were collected by retro-orbital bleeding, and the number of blood neutrophils was determined by CBC analysis. Each group contains five mice. The population of blood neutrophils was analyzed by flow cytometry. Red cell-lysed whole blood was stained with FITC-conjugated anti-Ly6G and PE-Cy7-conjugated anti-CD11b antibodies to determine the circulating neutrophil population. Ly6G+/CD11b+ cells were further stained with APC-conjugated anti-L-selectin and APC-conjugated anti-LFA-1 antibodies and were analyzed by flow cytometry to determine the expression of adhesion molecules.
The mice were intraperitoneally (i.p.) injected with 50 mg/kg gemcitabine to induce neutropenia. PLAG was diluted with phosphate-buffered saline (PBS) and then orally administrated at a dose of 50 or 250 mg/kg/day. The normal control group was administered PBS only during the experiment. At 15 h after gemcitabine treatment, the whole blood was collected from the orbital sinuses using capillary tubes (Kimble Chase Life Science and Research Products LLC, FL, USA) and collection tubes containing K3E-K3EDTA (Greiner Bio-One International, Kremsmünster, Austria). To obtain peritoneal cells, 5 ml of cold PBS was injected to the left side of the peritoneal wall using a 5 mL syringe, and the fluid was aspirated from the peritoneum. The collected cells were counted by complete blood count (CBC) analysis using Mindray BC-5300 auto-hematology analyzer (Shenzhen Mindray Biomedical Electronics, Guangdong Sheng, China).
To establish a 4T1 tumor-bearing mice model, the murine 4T1 mammary carcinoma cells (1×105) were subcutaneously injected on the right side of the abdomen. On the 10th day after tumor injection, the mice were intraperitoneally (i.p.) injected with 50 mg/kg gemcitabine, and the next day the whole blood was collected from the orbital sinuses as mentioned above before sacrificing the animals to obtain different organs of the body.

[5] = test system: citrullinated histone H3 in dHL-60 cells; experiment: Histone H3 citrullination, western blot; assay type: cell-based, human; details: time-dependent
Protocol: dHL-60 cells were lysed on ice for 30 minutes in RIPA buffer composed of 50 mM Tris-HCl (pH 7.4), 150 mM NaCl, 2 mM EDTA, 1% NP-40, 0.5% sodium deoxycholate, 0.1% SDS, 1 mM phenylmethylsulfonyl fluoride (PMSF), 10 mM sodium fluoride, 2 mM sodium pyrophosphate, 10 mM β-glycerophosphate, 10 mM sodium orthovanadate. The lysates were centrifuged at 13,000 rpm for 20 minutes at 4° C. and protein concentrations were determined using the Bradford assay (Bio-Rad Laboratories). Denatured samples were mixed with a 5×SDS-PAGE loading buffer and heated to 100° C. for 15 min. The samples were separated on the 10% of SDS-PAGE gel and transferred to polyvinylidene difluoride (PVDF) membranes (Merck Millipore Corporation, MA, USA). Membranes were blocked with 5% non-fat milk in PBS (10 mM Tris-HCl, pH7.5, 150 mM NaCl) for 1 h and probed with primary antibodies against histone H3 (citrulline R2+R8+R17) from abcam (USA) and β-actin from cell signaling (USA) for overnight at 4° C. The blots were washed and incubated with appropriate secondary antibodies and visualized using Pierce™ ECL Western Blotting Substrate (Thermo Scientific).

[6] = normal BALB/c mice, 15 hours after gemcitabine 50 mg/kg i.p.

Structure (SMILES): c1ccc2c(c1)[I+]c1ccccc1-2 [DPI, diphenyleneiodonium, reference compound]
gemcitabine-induced phosphorylation of ERK, p38 MAPK and JNK [1]: dose-dependently decreased

Structure (SMILES): CCCCCC=CCC=CCCCCCCCC(=O)OC(CO)CO [HLH, hydroxyl linoleic hydroxyl glycerol, reference compound]
number of neutrophils in BALF [2]: no effect

Structure (SMILES): CCCCC/C=C\C/C=C\CCCCCCCC(=O)O [LA, linoleic acid, reference compound]
number of neutrophils in BALF [2]: no effect

Structure (SMILES): CCCCCCCCCCCCCCCC(=O)O [PA, palmitic acid, reference compound]
number of neutrophils in BALF [2]: no effect

Structure (SMILES): COc1ccc2c(c1)CC[C@@H]1[C@@H]2CC[C@]2(C)[C@@H](NCCCCCCN3C(=O)C=CC3=O)CC[C@@H]12 [U73122, reference compound]
PLAG-induced intracellular calcium increase ([3]; PLC inhibitor, dose-dependent): inhibited

mRNA expression of MIP-2 in tissues ([4]; 4T1 tumor-bearing mice, gemcitabine 50 mg/kg i.p.): increases
migration of circulating neutrophils into the peritoneal cavity ([4]; 4T1 tumor-bearing mice, one day after gemcitabine 50 mg/kg i.p.): induced the migration
circulating neutrophils [4, 6]: significant reduction
neutrophils in the peritoneal cavity [4, 6]: increase
Structure (SMILES): Nc1ccn([C@@H]2O[C@H](CO)[C@@H](O)C2(F)F)c(=O)n1 [gemcitabine, reference compound]

Structure (SMILES): C[C@H](CCC(=O)O)C[C@H](C)C[C@H](C)C(=O)/C=C(\O)[C@H](C)C[C@H](C)C/C=C/[C@@H](C)[C@@H](O)[C@@H](C)[C@@H](O)C[C@@H]1CC[C@@](C)([C@H]2CC[C@@](C)([C@@H](C)O)O2)O1 [ionomycin, reference compound]
histone H3 citrullination [5]: induced
cytosolic calcium of dHL-60 cells ([3]; PLAG 100 μg/mL, ionomycin 5 μM): increased
